Reference: US20260224550A1, “PDE4 DEGRADERS, PHARMACEUTICAL COMPOSITIONS, AND THERAPEUTIC APPLICATIONS” (BioTheryX, Inc., priority 2023, published 2026)

How the values were obtained:
[1] = test system: IL-2; assay: Cell-based cytokine inhibition assay (PBMCs, anti-CD3/anti-CD28 stimulated, MSD kit): IL-2; details: PBMC, anti-CD3/anti-CD28 stimulation, 23 h with compound, relative to DMSO control
Procedure: (§1) Frozen primary blood mononuclear cells (PBMCs) were thawed and washed once with RPMI 1640 media supplemented with 10% fetal bovine serum, 1% penicillin, and 1% streptomycin. An anti-CD28 antibody at […] was added to the media as a co-stimulant. PBMCs were plated at 1×10^6 cells per well in a 96-well U bottom plate, which was pre-coated overnight with an anti-CD3 antibody at 1 μg/mL in PBS (100 μL/well). After the place was incubated for 1 h at 37° C. in a CO2 incubator, DMSO (control) or a compound was added. After the place was incubated for 23 h at 37° C. in a CO2 incubator, the cells were spun down at 1,500 rpm for 5 min. Supernatant media was collected for cytokine analysis using an MSD kit. Inhibitory activities of the compound were determined as a percentage of the DMSO control.

[2] = test system: TNFα; assay: Cell-based cytokine inhibition assay (PBMCs, anti-CD3/anti-CD28 stimulated, MSD kit): TNFα; details: PBMC, anti-CD3/anti-CD28 stimulation, 23 h with compound, relative to DMSO control
Procedure: as §1

[3] = test system: IFNγ; assay: Cell-based cytokine inhibition assay (PBMCs, anti-CD3/anti-CD28 stimulated, MSD kit): IFNγ; details: PBMC, anti-CD3/anti-CD28 stimulation, 23 h with compound, relative to DMSO control
Procedure: as §1

[4] = test system: IL-10; assay: Cell-based cytokine inhibition assay (PBMCs, anti-CD3/anti-CD28 stimulated, MSD kit): IL-10; details: PBMC, anti-CD3/anti-CD28 stimulation, 23 h with compound, relative to DMSO control
Procedure: as §1

[5] = test system: PDE4D, in particular, PDE4D short isoform; assay: Protein degradation assay in A549 cells (western blot): PDE4D; type: cell-based; details: 24 h, same conditions
Procedure: A549 cells were grown in RPMI 1640 media supplemented with 10% fetal bovine serum, streptomycin, and penicillin. The cells were plated in 6-well plates at 300,000 cells/well in the growth media. After overnight incubation, the cells were treated with DMSO (control) or a compound at predetermined concentrations (e.g., 10 nM, 100 nM, 1 μM, 3 μM, or 10 μM) for 24 h at 37° C. under 5% CO2. Whole cell extracts were prepared using an immunoprecipitation (IP) lysis buffer. The cells were washed once in PBS, and the cell pellets were resuspended in the IP lysis buffer and incubated for 15 min on ice. Cells debris was removed by centrifugation and the cleared whole cell lysates were transferred to new tubes for further analysis.
For a western blot analysis, the whole cell protein extracts were separated on 4-12% SDS-polyacrylamide gels, transferred to nitrocellulose, and probed with primary antibodies. Membranes were subsequently washed and probed with IRDYE® secondary antibodies. The signals were detected using an ODYSSEY® Imaging System. The antibodies used in the assay included anti-PDE4B antibody; anti-PDE4D antibodies (top, bottom, and short isoform); β-actin mouse monoclonal antibody; IRDYE® 680RD goat anti-rabbit antibody; and IRDYE® 800CW goat anti-mouse antibody.

SMILES | IC50 [1] [nM] | IC50 [2] [nM] | IC50 [3] [nM] | IC50 [4] [nM] | degradation of PDE4D (result in words) [5]
CCOc1cc([C@@H](CS(C)(=O)=O)N2C(=O)c3ccc(N4CCC(C5CCN(Cc6ccc(Oc7ccc8c(C9CCC(=O)NC9=O)nn(C)c8c7)cc6)CC5)CC4)cc3C2=O)ccc1OC (stereo partly drawn) [Compound B001, 5-(1′-(4-((3-(2,6-dioxopiperidin-3-yl)-1-methyl-1H-indazol-6-yl)oxy)benzyl)-[4,4′-bipiperidin]-1-yl)-2-((S)-1-(3-ethoxy-4-methoxyphenyl)-2-(methylsulfonyl)ethyl)-isoindoline-1,3-dione] | 0.2 | 0.3 | 0.9 | 0.3 | 
CCOc1cc([C@@H](CS(C)(=O)=O)N2C(=O)c3cccc(NC(C)=O)c3C2=O)ccc1OC [apremilast] |  |  |  |  | did not degrade
CCOc1cc([C@@H](CS(C)(=O)=O)N2C(=O)c3ccc(N4CCN(CC5CCN(Cc6ccc(Oc7ccc8c(C9CCC(=O)NC9=O)nn(C)c8c7)cc6)CC5)CC4)cc3C2=O)ccc1OC (stereo partly drawn) [Compound B002, 5-(4-((1-(4-((3-(2,6-dioxopiperidin-3-yl)-1-methyl-1H-indazol-6-yl)oxy)benzyl)-piperidin-4-yl)methyl)piperazin-1-yl)-2-((S)-1-(3-ethoxy-4-methoxyphenyl)-2-(methylsulfonyl)-ethyl)isoindoline-1,3-dione] | 0.09 | 0.09 | 0.3 | 0.2 | 
